Measured values reported in PubChem BioAssay AID2060490 (Molecular Pharmacology Branch, DTP, NCI, 2025).
pIC50: −log10 of the molar value.

Tested on: 885512-296-R-J2-PDC complex spheroid viability
Assay: Anticancer human tumor 885512-296-R-J2-PDC patient-derived breast carcinoma cell line growth inhibition [GQUAD]
Settings: for pIC50: curve of first compound; for viability, T/C: stronger effect = lower value
Description: DNA G-quadruplex Stabilizer Agents in Combinations in Complex Spheroids
A high-throughput screen of multi-cell type tumor spheroids was designed to identify active combinations of DNA G-quadruplex stabilizer agents and targeted small molecules. Complex spheroids include a stromal component modeled by human endothelial cells (HUVEC) and fibroblasts modeled by human mesenchymal stem cells (MSCs). The concentration ranges selected for each drug and investigational agent were based upon clinically achievable concentrations if the clinical Cmax of the agent was known.
Compounds. The drugs and investigational agents: pidnarulex (CX-5461; NSC782164), APTO-253 (NSC789042), BRACO-19 (NSC847499), peposertib (NSC802822), ceralasertib (NSC780249), elimusertib (NSC800525), camonsertib (NSC841442), AZD-1390 (NSC803789), olaparib (NSC753686), talazoparib (NSC767125), ART-558 (NSC835418), sotorasib (NSC818433), MRTX-1133 (NSC836407), SN-38 (NSC673596), topotecan (NSC609699), etoposide (NSC141540), doxorubicin (NSC123127), gemcitabine (NSC613327), 5-fluorouracil (NSC19893), paclitaxel (NSC125973), vemurafenib (NSC761431), panobinostat (NSC761190), R-306465 (JNJ-16241199; NSC773264), adavosertib (NSC754352), TP-3654 (NSC805149), carboplatin (NSC241240), KSQ-4279 (NSC840948), and staurosporine (NSC755774) were obtained from the National Cancer Institute (NCI) Developmental Therapeutics Program Chemical Repository (34). The FDA-approved anticancer drug set is available from the NCI Developmental Therapeutics Program. […] The stock solutions were prepared in dimethyl sulfoxide (DMSO, Sigma-Aldrich, St. Louis, MO, cat. D2650) at 800-fold the tested concentration and stored at -70 degrees C prior to their use. All drugs and investigational agents were tested over a range starting from a high concentration at or near the clinical Cmax and decreasing in half-log increments. If the clinical Cmax for an agent had not been determined, the highest concentration tested was 10 microM.
2.3 Cell Culture. All cells were maintained in an incubator at 37 degrees C and 5% CO2 with 95% humidity. The PDC lines were cultured according to standard operating procedures established by the NCI PDMR. All PDCs were thawed and cultured in Matrigel-coated flasks prepared with a working solution of 1X Ham's F-12 nutrient mix, without supplementation (Invitrogen, cat. 11765054), 100 U/mL penicillin-streptomycin (Invitrogen, cat. 15140122), and 2.5% Matrigel (Corning Inc., cat. 354248) for the first three passages. The 857933-349-R-J2-PDC line was cultured in 6C/Colon 1B media, which includes advanced DMEM/F-12 (Thermo Fisher Scientific, cat. 12634028), 10 mM HEPES (Thermo Fisher Scientific, cat. 15630080), 1X GlutaMAX supplement (Thermo Fisher Scientific, cat. 35050061), 0.1 mg/mL primocin (InvivoGen, cat. ant-pm-2), 10% defined fetal bovine serum, heat inactivated (HyClone Laboratories Inc., cat. SH30070.03HI), 50% L-WRN conditioned media (ATCC, cat. CRL-3276), 1.25 mM N-Acetyl-L-cysteine (Sigma-Aldrich, cat. A9165), 10 mM nicotinamide (Sigma-Aldrich, cat. N0636), 1X B-27 supplement (Thermo Fisher Scientific, cat. 17504044), 1X N-2 supplement (Thermo Fisher Scientific, cat. 17502048), 10 microM Y-27632 dihydrochloride (Tocris Bioscience, cat. 1254), and 50 ng/mL human EGF recombinant protein (Thermo Fisher Scientific, cat. PHG0311). The 485176-168-R4-J1-PDC line was cultured in Panc media, which includes all 6C/Colon 1B media components plus 100 ng/mL human FGF-10 (Thermo Fisher Scientific, cat. 100-26), 500 nM SB-431542 (Selleckchem, cat. S1067), and gastrin (Tocris, cat. 3006).
[…]

[1] = second compound 0.0316 µM, first compound 0.0316 µM
[2] = second compound 0.0316 µM, first compound 0.1 µM
[3] = second compound 0.0316 µM, first compound 0.316 µM
[4] = second compound 0.0316 µM, first compound 1 µM
[5] = second compound 0.0316 µM, first compound 3.16 µM
[6] = second compound 0.0316 µM, first compound 10 µM
[7] = second compound 0.1 µM, first compound 0.0316 µM
[8] = second compound 0.1 µM, first compound 0.1 µM
[9] = second compound 0.1 µM, first compound 0.316 µM
[10] = second compound 0.1 µM, first compound 1 µM
[11] = second compound 0.1 µM, first compound 3.16 µM
[12] = second compound 0.1 µM, first compound 10 µM
[13] = second compound 0.316 µM, first compound 0.0316 µM
[14] = second compound 0.316 µM, first compound 0.1 µM
[15] = second compound 0.316 µM, first compound 0.316 µM
[16] = second compound 0.316 µM, first compound 1 µM
[17] = second compound 0.316 µM, first compound 3.16 µM
[18] = second compound 0.316 µM, first compound 10 µM
[19] = second compound 1 µM, first compound 0.0316 µM
[20] = second compound 1 µM, first compound 0.1 µM
[21] = second compound 1 µM, first compound 0.316 µM
[22] = second compound 1 µM, first compound 1 µM
[23] = second compound 1 µM, first compound 3.16 µM
[24] = second compound 1 µM, first compound 10 µM
[25] = second compound 3.16 µM, first compound 0.0316 µM
[26] = second compound 3.16 µM, first compound 0.1 µM
[27] = second compound 3.16 µM, first compound 0.316 µM
[28] = second compound 3.16 µM, first compound 1 µM
[29] = second compound 3.16 µM, first compound 3.16 µM
[30] = second compound 3.16 µM, first compound 10 µM
[31] = second compound 10 µM, first compound 0.0316 µM
[32] = second compound 10 µM, first compound 0.1 µM
[33] = second compound 10 µM, first compound 0.316 µM
[34] = second compound 10 µM, first compound 1 µM
[35] = second compound 10 µM, first compound 3.16 µM
[36] = second compound 10 µM, first compound 10 µM
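Further: spheroids exposed to the compounds for one week.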
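Wherever viability, T/C is given: percent of tumor spheroid viability relative to DMSO vehicle control wells.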

Structure (SMILES): Cc1cccc(N(C)C(=O)C2C(O)CCN2c2nc(C)cc(C(F)(F)F)c2C#N)c1 (centres undefined) + Cc1[nH]c2ccc(F)cc2c1-c1nc2c3cccnc3c3ncccc3c2[nH]1
- pIC50 (second compound 0.0316 µM): < 5.00
- pIC50 (second compound 0.1 µM): < 5.00
- pIC50 (second compound 0.316 µM): < 5.00
- pIC50 (second compound 1 µM): < 5.00
- pIC50 (second compound 3.16 µM): > 7.50
- pIC50 (second compound 10 µM): > 7.50
- viability, T/C [1]: 101%
- viability, T/C [2]: 92.6%
- viability, T/C [3]: 108%
- viability, T/C [4]: 97.3%
- viability, T/C [5]: 96.7%
- viability, T/C [6]: 91.5%
- viability, T/C [7]: 98.5%
- viability, T/C [8]: 99.8%
- viability, T/C [9]: 100%
- viability, T/C [10]: 94.2%
- viability, T/C [11]: 105%
- viability, T/C [12]: 93.2%
- viability, T/C [13]: 90.2%
- viability, T/C [14]: 98.9%
- viability, T/C [15]: 98.8%
- viability, T/C [16]: 94.2%
- viability, T/C [17]: 90.7%
- viability, T/C [18]: 82.4%
- viability, T/C [19]: 83.5%
- viability, T/C [20]: 78.2%
- viability, T/C [21]: 87.4%
- viability, T/C [22]: 88.8%
- viability, T/C [23]: 90.5%
- viability, T/C [24]: 68.6%
- viability, T/C [25]: 30.2%
- viability, T/C [26]: 30.1%
- viability, T/C [27]: 16.5%
- viability, T/C [28]: 22.4%
- viability, T/C [29]: 20.8%
- viability, T/C [30]: 19.9%
- viability, T/C [31]: 3.35%
- viability, T/C [32]: 3.56%
- viability, T/C [33]: 2.69%
- viability, T/C [34]: 2.33%
- viability, T/C [35]: 2.29%
- viability, T/C [36]: 2.63%

Structure (SMILES): O=C(c1cc(Cc2n[nH]c(=O)c3ccccc23)ccc1F)N1CCN(C(=O)C2CC2)CC1 + Cc1[nH]c2ccc(F)cc2c1-c1nc2c3cccnc3c3ncccc3c2[nH]1
- pIC50 (second compound 0.0316 µM): 5.08
- pIC50 (second compound 0.1 µM): 5.02
- pIC50 (second compound 0.316 µM): 5.07
- pIC50 (second compound 1 µM): 5.29
- pIC50 (second compound 3.16 µM): > 7.50
- pIC50 (second compound 10 µM): > 7.50
- viability, T/C [1]: 105%
- viability, T/C [2]: 96.3%
- viability, T/C [3]: 124%
- viability, T/C [4]: 139%
- viability, T/C [5]: 134%
- viability, T/C [6]: 36%
- viability, T/C [7]: 98%
- viability, T/C [8]: 103%
- viability, T/C [9]: 119%
- viability, T/C [10]: 137%
- viability, T/C [11]: 146%
- viability, T/C [12]: 46.4%
- viability, T/C [13]: 94.3%
- viability, T/C [14]: 99.2%
- viability, T/C [15]: 112%
- viability, T/C [16]: 150%
- viability, T/C [17]: 131%
- viability, T/C [18]: 38.7%
- viability, T/C [19]: 75.2%
- viability, T/C [20]: 74.4%
- viability, T/C [21]: 82.4%
- viability, T/C [22]: 101%
- viability, T/C [23]: 70.5%
- viability, T/C [24]: 21%
- viability, T/C [25]: 13.8%
- viability, T/C [26]: 13.9%
- viability, T/C [27]: 16.7%
- viability, T/C [28]: 14.9%
- viability, T/C [29]: 6.15%
- viability, T/C [30]: 2.65%
- viability, T/C [31]: 2.34%
- viability, T/C [32]: 2.08%
- viability, T/C [33]: 3.14%
- viability, T/C [34]: 1.59%
- viability, T/C [35]: 1.27%
- viability, T/C [36]: 1.27%
